Ends that are not written are not given here.
Key:
[1] = biological target: T1, human IFNr (Homo sapiens, UniProt P01579); assay: Blocking of hIFNr detection by sera of immunized rats; format: binding; conditions: sera incubated with 200 pg/mL of human IFNr
T1 sequence (P01579 24-166): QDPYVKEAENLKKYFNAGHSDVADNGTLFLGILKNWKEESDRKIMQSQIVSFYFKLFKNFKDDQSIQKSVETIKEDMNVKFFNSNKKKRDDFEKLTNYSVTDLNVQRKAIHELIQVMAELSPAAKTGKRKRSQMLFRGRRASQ
Method: Blood plasma from patients and donors was serially diluted (10^−1 to 10^−6) and incubated with recombinant human IFNr at a final concentration of 200 pg/mL for 1 hour at 37° C. The IFNr level was measured with a human IFNr ELISA kit from BD Biosciences according to the manufacturer's recommendations. All experiments were performed in duplicate.
However, blood sera from Noc2 peptide-immunized rats (n=4) and Peptide 6-immunized rats (n=2) at dilutions of up to 1/10^2 inhibited the detection of hIFNr.

[2] = test system: THP1 cells; assay: p-STAT1 in THP1 cells pre-incubated with sera of immunized rats and treated with IFNr; format: cell-based; conditions: 50% sera
[3] = test system: WKY/NcrlNarl rats; assay: Immunization of rats with Noc2 or IFNr peptide conjugated with OVA; format: in vivo, rat; conditions: 0.25 mg peptide-OVA, booster every two weeks
Method: The inventor immunized WKY/NcrlNarl rats with 0.25 mg Noc2 or IFNr[…] peptide (Noc2: […] (SEQ NO: 31); IFNr: […] (SEQ NO: 32)) conjugated with ovalbumin (OVA) and gave a booster dose every two weeks after the initial injection (day 0). After 70 days, the inventor checked the antibody production level by dot blot or ELISA at each injection. All rats were sacrificed ten days after the tenth injection (day 136) and whole blood was collected. After collection of the whole blood, the blood was allowed to clot by leaving it undisturbed at room temperature 15 minutes. Clots were removed by centrifuging at 1500 g for 10 minutes in a refrigerated centrifuge. Sera were aliquoted and stored at −20° C. for further use.
Blood sera from pre-immunized rats (n=6), Noc2 peptide-immunized rats (n=4) and Peptide 6-immunized rats (n=2) were mapped to control peptide, Peptide 6 and Noc2 peptide from Aspergillus terreus or Aspergillus fumigatus. This is represented as the mean optical density (OD) at 405 nm.

[4] = test system: HLA-DR expression in PBMCs; assay: HLA-DR expression in PBMCs (CD14+ gated); format: cell-based, human; conditions: IFNr AutoAbs patients' PBMCs pre-incubated with 10% autologous plasma
Method: A total of 10^6 PBMCs in 200 μL RPMI-1640 with 10% FBS and 1% penicillin/streptomycin was used. Cells were then stimulated with 500 IU IFNr, IFNr_1-131 or EE-IFNr⋅ in 160 μL RPMI-1640 pre-incubated with 40 μL of normal blood plasma or patient blood plasma for 10 min at room temperature. After 24 hours of stimulation in a 37° C. incubator, monocytes were identified by FITC-CD14 (BD Pharmingen) surface staining. Next, PE-HLA-DR antibody (BD Pharmingen) was added followed by 30 minutes of incubation on ice in the dark. Cells were again washed with 2 ml of PBS before resuspension in 500 μl of PBS. Data were collected with a FACSVerse flow cytometer (BD Biosciences) and analyzed using FACSuite software (BD Biosciences).
After being gated on the CD14^+, HLA-DR expression levels were determined by flow cytometry with the HLA-DR monoclonal antibody. Representative histograms (FIG. 4d(1)-FIG. 4d(2)) and MFI (median fluorescence intensity) (FIG. 4e) are shown.

[5] = test system: anti-IFNr AutoAbs; assay: Immunoblotting (Western blot / dot blot) with patient or control plasma; format: binding, human; conditions: plasma from healthy donors
Method: Recombinant IFNr[…] (R&D Systems) and different truncated forms of recombinant IFNr[…] were subjected to SDS-PAGE using a 10% gel under reducing conditions at 120 V for 2 hours. The proteins were transferred to a PVDF membrane (Invitrogen Life Technologies) at 250 mA for 2 hours. The membrane was blocked in 5% human normal serum albumin (Aventis) in TBS with 0.1% Tween 20 overnight at 4° C. The membrane was incubated with a 1/100 dilution of patient or control blood plasma for 3 hours at room temperature. After being washed three times, the membrane was incubated in a 1/10,000 dilution of mouse anti-human IgG conjugated with horseradish peroxidase (Jackson ImmunoResearch Laboratories) for 1 hour at room temperature. After being washed three times, the membrane was developed with ECL (Merck Millipore).
Plasma from 3 healthy donors had no response to either IFNr1-131 or EE-IFNr.

[6] = test system: anti-IFNr AutoAbs; assay: Protein mapping ELISA of recombinant IFNr proteins with blood plasma; format: binding, human; conditions: patients' blood plasma, OD 405 nm
[7] = test system: IL-12p40 in whole blood; format: cell-based, human
[8] = test system: THP1 cells; assay: HLA-DR expression in THP1 cells; format: cell-based; conditions: in the presence of anti-IFNr AutoAbs
[9] = test system: IL-12p40 in PBMCs; format: cell-based, human
[10] = test system: p-STAT1 in whole blood; assay: p-STAT1 in whole blood ex vivo; format: cell-based, human
Text: Representative histograms (FIG. 4f(1)-FIG. 4f(2)) and MFI (median fluorescence intensity) (FIG. 4g) are shown.

[11] = test system: p-STAT1 in PBMCs; assay: p-STAT1 intracellular stain in PBMCs (CD14+ gated); format: cell-based, human
Method: A total of 10^6 PBMCs in 200 μL RPMI-1640 with 10% FBS and 1% penicillin/streptomycin was used. […] After 30 minutes of stimulation in a 37° C. incubator, monocytes were identified by FITC-CD14 (BD Pharmingen) surface staining. Fixed by adding 250 μL of FASC lysing solution (BD Pharmingen) and incubated at room temperature for 15 minutes in the dark, followed by two washes with PBS. To permeabilize the cells, 500 μl of ice-cold absolute methanol was added to each tube and incubated for 15 minutes on ice in the dark, followed by two washes with PBS. Next, PE-phospho-STAT1 (pY701) antibody (BD Pharmingen) was added, followed by 30 minutes incubation on ice in the dark. Again, cells were washed with 2 mL of PBS before resuspension in the 500 μL of PBS. Data were collected with a FACSVerse flow cytometer (BD Biosciences) and analyzed using FACSuite software (BD Biosciences).
Representative histograms (FIG. 2c(1)-FIG. 2c(2)) and MFI (median fluorescence intensity) (FIG. 2d) are shown.
After being gated on the CD14^+, p-STAT-1 levels were determined by flow cytometry with the p-STAT-1 monoclonal antibody. Representative histograms (FIG. 4a(1)-FIG. 4a(2)) and MFI (median fluorescence intensity) (FIG. 4b) are shown.

With “CAAKTGKRKRSQM (also: conjugated to ovalbumin; UniProt P01579 146-157, looked up, fragment)” the “blocking of hIFNr detection by sera of immunized rats (serum dilution)” value [1] was “can block human recombinant IFNr”, the “p-STAT1 signaling after recombinant IFNr in presence of sera of immunized rats” value [2] was “decreased up-regulation of p-STAT1 signaling” and the “antibodies developed after immunization” value [3] was “developed antibodies to human IFNr, which could cross-react with Aspergillus Noc2”.

“EE-IFNr: IFNr_1-131 protein with human P121-127 SPAAKTG sequence substituted with murine LPESSLR sequence (SEQ NO: 1) (listed as Mus musculus)” was tested, and the “HLA-DR expression levels restored / up-regulated” value [4] was “four of six”, the “binding of plasma from healthy controls in Western blot” value [5] was “no response” and the “affinity of anti-IFNr AutoAbs by ELISA” value [6] was “markedly decreased in comparison with wild type (WT) IFNr_1-131”. The IL-12p40 production restored [7] was “three of six”, the HLA-DR expression [8] was “up-regulation of HLA-DR expression” and the IL-12p40 expression [9] was “did restore IL-12p40 expression”. For the same substance, the IL-12p40 production restored [9] was “three of six”, the “p-STAT1 signaling restored / up-regulated” value ([10]; IFNr AutoAbs patients' whole blood) was “four of six” and the p-STAT1 signal ([10]; controls' whole blood) was “up-regulated”. For the same substance, the “p-STAT1 signaling restored / up-regulated” value ([11]; IFNr AutoAbs patients' PBMCs pre-incubated with 10% autologous blood plasma) was “four of six”, the “phosphorylation of STAT1” value ([11]; controls' PBMCs pre-incubated with 20% blood plasma with anti-IFNr AutoAbs from patients) was “could induce the phosphorylation of STAT1” and the p-STAT1 signaling ([11]; controls' PBMCs, 20% control blood plasma) was “Up-regulation of the p-STAT1 signaling was observed”.

Reference: patent US10273278B2, “Epitope recognized by anti-interferon gamma autoantibodies in patients with disseminated mycobacterial infections and the application therefor” (priority 2015, dated 2019)
